What was measured:
Format in all cases: physicochemical
[1] = Minimum ignition energy (MIE), standard NF EN 13821, vertical Hartmann tube; settings: dispersed solid mass 0,5 g
Description: The minimum ignition energy represents the minimum energy that must be supplied to a product (chemical compound) to cause it to ignite. The energy may be electrical or thermal. The minimum ignition energy is an essential piece of information when considering the risk of explosion during product handling (transfer, storage, reaction, shaping, etc.). In the case of solids, this energy is the minimum energy of an electric spark likely to ignite a cloud of dust. The higher the value of the minimum ignition energy, the less risk the solid presents when used, handled or stored. The minimum ignition energy is measured in accordance with standard NF EN 13821. The explosimeter is a vertical Hartmann tube. The dust dispersion system is of the mushroom type. Total induction is less than 25 microhenry. Discharge voltage is between 5 kV and 15 kV. The electrodes are made of brass and spaced apart by a minimum distance of 6 mm.

[2] = Particle-size distribution by laser diffraction (Cilas 1190)
Description: ATBS AH and crystals of ATBS.K AK2a are analysed by laser diffraction to determine their particle-size distribution.
The laser diffraction equipment used is a Cilas 1190.

[3] = Storage stability of ATBS / ATBS.K stored in solid form: homopolymer by steric exclusion chromatography; settings: newly prepared solution
Description: In parallel, the stability of the different ATBS (acid AH or potassium salt AK2a) in solid form was also assessed over the same period of time.
In this case, every three months, 500 g of a solution of ATBS.K was freshly prepared according to the preparation process described in example 10a or 11 using the stored ATBS products of AH, AK2a and CE-AK2c to 2e.
Stability of the solid products was also assessed by monitoring the amount of homopolymers of ATBS.K present after that time.
The solutions were analysed by liquid-phase steric exclusion chromatography using an Agilent 1260 chromatograph equipped with Aquagel-OH 20, 30, 40 and 50 columns allowing analysis of anionic polymers up to 600,000 g/mol PEG equivalent.
The solutions of ATBS.K were diluted to 2000 ppm (by weight in water) before being injected. The UV signal at 250 nm at the column outlet was integrated for the polymer peaks and are detailed in tables 4 and 5 below. The larger the signal area, the more polymer is present, and therefore the lower the stability of the product over time. Table 4: Stability of ATBS and ATBS potassium salt stored in solutions

## C=CC(=O)NC(C)(C)CS(=O)(=O)O [ATBS AH, 2-acrylamido-2-methylpropanesulphonic acid]
[1]; Energy 300 mJ
  Flame: Average
  Pressure: Average
[1]; Energy 500 mJ
  Flame: Average
  Pressure: Average
[1]; Energy 1000 mJ
  Flame: Small
  Pressure: Low
[2]
  90% of the particles are smaller than: 100 µm
  d50 value: approximately 40 µm
[3]; T0
  UV signal at 250 nm integrated for the polymer peaks: 0 mV.s
[3]; T0 + 3 months
  UV signal at 250 nm integrated for the polymer peaks: 250 mV.s
[3]; T0 + 6 months
  UV signal at 250 nm integrated for the polymer peaks: 7702 mV.s
[3]; T0 + 9 months
  UV signal at 250 nm integrated for the polymer peaks: 10503 mV.s
[3]; T0 + 12 months
  UV signal at 250 nm integrated for the polymer peaks: 256300 mV.s

## C=CC(=O)NC(C)(C)CS(=O)(=O)[O-].[K+] [ATBS.K AK2a, 2-acrylamido-2-methylpropanesulphonic acid potassium salt]
[1]; High energy
  Flame: Small
  Pressure: Low
[2]
  90% of the particles are smaller than: approximately 1500 µm
  d50 value: approximately 600 µm
  particles smaller than 325 µm: less than 10%
[3]; T0
  UV signal at 250 nm integrated for the polymer peaks: 0 mV.s
[3]; T0 + 3 months, potassium salt
  UV signal at 250 nm integrated for the polymer peaks: 200 mV.s
[3]; T0 + 6 months
  UV signal at 250 nm integrated for the polymer peaks: 6532 mV.s
[3]; T0 + 9 months
  UV signal at 250 nm integrated for the polymer peaks: 9532 mV.s
[3]; T0 + 12 months
  UV signal at 250 nm integrated for the polymer peaks: 25631 mV.s

## C=CC(=O)NC(C)(C)CS(=O)(=O)[O-].[K+] [ATBS.K CE-AK2c, 2-acrylamido-2-methylpropanesulphonic acid potassium salt]
[3]; T0
  UV signal at 250 nm integrated for the polymer peaks: 0 mV.s
[3]; T0 + 3 months, potassium salt
  UV signal at 250 nm integrated for the polymer peaks: 261 mV.s

## C=CC(=O)NC(C)(C)CS(=O)(=O)[O-].[K+] [ATBS.K CE-AK2d, 2-acrylamido-2-methylpropanesulphonic acid potassium salt]
[3]; T0
  UV signal at 250 nm integrated for the polymer peaks: 0 mV.s
[3]; T0 + 3 months, potassium salt
  UV signal at 250 nm integrated for the polymer peaks: 254 mV.s

## C=CC(=O)NC(C)(C)CS(=O)(=O)[O-].[K+] [ATBS.K CE-AK2e, 2-acrylamido-2-methylpropanesulphonic acid potassium salt]
[3]; T0
  UV signal at 250 nm integrated for the polymer peaks: 0 mV.s
[3]; T0 + 3 months, potassium salt
  UV signal at 250 nm integrated for the polymer peaks: 251 mV.s

— patent EP4496786B1, “CRYSTALLINE FORM OF 2-ACRYLAMIDO-2-METHYLPROPANESULPHONIC ACID POTASSIUM SALT” (SNF Group, priority 2023, dated 2024)
